In article PMC7708037, “Targeting OGG1 arrests cancer cell proliferation by inducing replication stress” (Nucleic Acids Research, 2020):

Columns and labels:
OGG1 enzyme = OGG1 enzyme (Homo sapiens, UniProt O15527); assay: OGG1 activity in vitro (biochemical assay); settings: 1 nM OGG1, 10 nM 8oxoA:C substrate, 2 nM APE1; read-out: IC50 of OGG1 inhibition
Protocol: OGG1 activity was assessed in vitro as previously described ([39]).
Figure 7. […] (A) Lack of TH5487 efficacy in vivo. A3 cells were injected subcutaneously in mice, allowed to graft for three days and then administered […] TH5487 orally, once a day on weekdays. Twelve days into the treatment, the dose was increased to 40 mg/kg. Data are average ± SD (n = 9 per treatment group). (B) TH5487 target engagement in A3 xenograft. Tumors were excised following termination, and TH5487 target engagement was analyzed by cellular thermal shift assay, using an antibody specific for the human OGG1 protein. Data are average ± SD (n = 4 different tumors per group). (C) Effect of bovine serum albumin on OGG1 inhibition by TH5487. A dilution series of TH5487 was incubated with OGG1 enzyme and a DNA reporter oligonucleotide containing an OGG1-substrate, in the presence or absence of 1% (w/v) bovine serum albumin. Data are average ± SD of four technical replicates from two independent experiments.
Supplementary Fig. S4: OGG1 inhibitors selectively inhibt cancer cell line proliferation A. TH5796 and TH6943 inhibit OGG1 activity in vitro. OGG1 enzyme was treated with the indicated concentration inhibitor in technical duplicates. The line connects the average values. TH5796 inhibits OGG1 with an […]
with the indicated concentrations of TH5796 or TH6943 and 10 nM 8oxoA:C substrate in the presence of 2 nM APE1 as described. B. Chemical structure of TH5487 and the analogues described in this work.
C. Correlation between TH5487 EC 50 values and TH5796 or TH6943. Cell lines were treated for five […]
experiments. The lines indicate the best fit linear regression line, and R 2 the corresponding coefficient of determination. D. to F. Cancer cell selectivity for TH5487 (D), TH5796 (E) and TH6943 (F). Cell lines were treated as in Fig. 3E, and each point represents the EC50 value determined from 1 –5 independent […]
(1 picture or pasted object on this page, not shown here)

H460 = assay: Resazurin viability, 5 days; type: cell-based, human; settings: Homo sapiens, NCI-H460, 120 h, H460, C, Large cell lung carcinoma
Protocol: (§1) Cells were seeded in 96- or 384-well plates and incubated for 3 days for combination experiments or 5 days for single-drug exposure experiments. Resazurin (R7017, SigmaAldrich) was added to a final concentration of 0.01 mg/ml resazurin and fluorescence was measured at ex530/em590 after incubation for 2, 4 or 6 h. Curves were fitted using XLfit software (IDBS) or Prism 8.0 (Graphpad Software), and EC50 values were determined.
(§2) Supplementary Table S1: Effect of OGG1 inhibitors on cancer and non-transformed cell lines.
(§3) Cell lines were incubated with a dilution series of the indicated compounds for 5 days, and viability
(§4) assessed with resazurin. EC50-values were calculated based on the resulting dose -response curves.
(§5) The number of independent experiments is indicated for each value.
(§6) C=cancer;N=non- Disease EC50 n= EC50 n= EC50 n=

HL-60 = assay: Resazurin viability, 5 days; type: cell-based, human; settings: Homo sapiens, 120 h, HL-60, C, Acute promyelocytic leukemia
Protocol: as §1, §2, §3, §4, §5, §6

HeLa = assay: Resazurin viability, 5 days; type: cell-based, human; settings: Homo sapiens, 120 h, C, Cervix adenomcarcinoma
Protocol: as §1, §2, §3, §4, §5, §6

Raji = assay: Resazurin viability, 5 days; type: cell-based, human; settings: Homo sapiens, 120 h, C, Burkitt's lymphoma
Protocol: as §1, §2, §3, §4, §5, §6

SW480 = assay: Resazurin viability, 5 days; type: cell-based, human; settings: Homo sapiens, 120 h, SW480, C, Colorectal adenocarcinoma
Protocol: as §1, §2, §3, §4, §5, §6

PL-21 = assay: Resazurin viability, 5 days; type: cell-based, human; settings: Homo sapiens, 120 h, PL-21, C, Acute myeloid leukemia
Protocol: as §1, §2, §3, §4, §5, §6

KG1a = assay: Resazurin viability, 5 days; type: cell-based, human; settings: Homo sapiens, KG-1a, 120 h, C, Acute myelogenous leukemia
Protocol: as §1, §2, §3, §4, §5, §6

M059K = assay: Resazurin viability, 5 days; type: cell-based, human; settings: Homo sapiens, 120 h, C, Glioblastoma
Protocol: as §1, §2, §3, §4, §5, §6

HCT116 = assay: Resazurin viability, 5 days; type: cell-based, human; settings: Homo sapiens, HCT-116, 120 h, HCT116, C, Colorectal carcinoma
Protocol: as §1, §2, §3, §4, §5, §6

Daudi = assay: Resazurin viability, 5 days; type: cell-based, human; settings: Homo sapiens, 120 h, C, Burkitt's lymphoma
Protocol: as §1, §2, §3, §4, §5, §6

786-0 = assay: Resazurin viability, 5 days; type: cell-based, human; settings: Homo sapiens, 120 h, 786-0, C, Kidney adenocarcinoma
Protocol: as §1, §2, §3, §4, §5, §6

A498 = assay: Resazurin viability, 5 days; type: cell-based, human; settings: Homo sapiens, 120 h, A498, C, Kidney carcinoma
Protocol: as §1, §2, §3, §4, §5, §6

DU145 = assay: Resazurin viability, 5 days; type: cell-based, human; settings: Homo sapiens, DU-145, 120 h, DU145, C, Prostate carcinoma
Protocol: as §1, §2, §3, §4, §5, §6

T98G = assay: Resazurin viability, 5 days; type: cell-based, human; settings: Homo sapiens, 120 h, C, Glioblastoma
Protocol: as §1, §2, §3, §4, §5, §6

BJ-Tert = assay: Resazurin viability, 5 days; type: cell-based, human; settings: Homo sapiens, 120 h; BJ-Tert, N, Tert-Immortalized fibroblast; 5 days, resazurin; read-out: EC50
Protocol: as §1, §2, §3, §4, §5, §6

SaOS2 = assay: Resazurin viability, 5 days; type: cell-based, human; settings: Homo sapiens, SAOS-2, 120 h, SaOS2, C, Osteosarcoma
Protocol: as §1, §2, §3, §4, §5, §6

Rec1 = assay: Resazurin viability, 5 days; type: cell-based, human; settings: Homo sapiens, 120 h, Rec1, C, B cell non-Hodgkin's lymphoma
Protocol: as §1, §2, §3, §4, §5, §6

PC3 = assay: Resazurin viability, 5 days; type: cell-based, human; settings: Homo sapiens, PC-3, 120 h, PC3, C, Prostate adenocarcinoma
Protocol: as §1, §2, §3, §4, §5, §6

CCD841 = assay: Resazurin viability, 5 days; type: cell-based, human; settings: Homo sapiens, CCD-841, 120 h, CCD841, N, Non-transformed fibroblast
Protocol: as §1, §2, §3, §4, §5, §6

M059J = assay: Resazurin viability, 5 days; type: cell-based, human; settings: Homo sapiens, 120 h, C, Glioblastoma
Protocol: as §1, §2, §3, §4, §5, §6

UO31 = assay: Resazurin viability, 5 days; type: cell-based, human; settings: Homo sapiens, UO-31, 120 h, UO31, C, Kidney carcinoma
Protocol: as §1, §2, §3, §4, §5, §6

MV4-11 = assay: Resazurin viability, 5 days; type: cell-based, human; settings: Homo sapiens, 120 h, MV4-11, C, Acute monocytic leukemia
Protocol: as §1, §2, §3, §4, §5, §6

U2OS = assay: Resazurin viability, 5 days; type: cell-based, human; settings: Homo sapiens, 120 h, C, Osteosarcoma
Protocol: as §1, §2, §3, §4, §5, §6

MOLT4 = assay: Resazurin viability, 5 days; type: cell-based, human; settings: Homo sapiens, MOLT-4, 120 h, MOLT4, C, T-cell acute lymphoblastic leukemia
Protocol: as §1, §2, §3, §4, §5, §6

MRC5 = assay: Resazurin viability, 5 days; type: cell-based, human; settings: Homo sapiens, 120 h, MRC5, N, Non-transformed lung fibroblast
Protocol: as §1, §2, §3, §4, §5, §6

HCT116+Chr3 = assay: Resazurin viability, 5 days; type: cell-based, human; settings: Homo sapiens, 120 h, HCT116+Chr3, C, Colorectal carcinoma with WT Chr3
Protocol: as §1, §2, §3, §4, §5, §6

HT-29 = assay: Resazurin viability, 5 days; type: cell-based, human; settings: Homo sapiens, 120 h, HT-29, C, Colorectal adenocarcinoma
Protocol: as §1, §2, §3, §4, §5, §6

VH10 = assay: Resazurin viability, 5 days; type: cell-based, human; settings: Homo sapiens, 120 h, VH10, N, Non-transformed fibroblast
Protocol: as §1, §2, §3, §4, §5, §6

Chain of OGG1 enzyme (O15527 whole entry): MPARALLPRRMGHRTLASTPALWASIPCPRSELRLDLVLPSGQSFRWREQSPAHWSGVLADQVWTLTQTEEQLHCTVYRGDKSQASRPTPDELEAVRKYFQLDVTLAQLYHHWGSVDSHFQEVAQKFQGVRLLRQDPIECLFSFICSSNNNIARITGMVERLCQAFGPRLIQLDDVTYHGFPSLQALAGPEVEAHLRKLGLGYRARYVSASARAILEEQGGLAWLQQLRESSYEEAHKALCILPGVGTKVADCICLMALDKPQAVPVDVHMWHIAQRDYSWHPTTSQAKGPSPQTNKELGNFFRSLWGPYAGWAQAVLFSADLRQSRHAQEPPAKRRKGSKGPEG

| IC50 (OGG1 enzyme) | EC50 (H460) | EC50 (HL-60) | EC50 (HeLa) | EC50 (Raji) | EC50 (SW480) | EC50 (HCT116) | EC50 (Daudi) | EC50 (786-0) | EC50 (DU145) | EC50 (PC3) | Compound | EC50 (PL-21) | EC50 (KG1a) | EC50 (M059K) | EC50 (A498) | EC50 (T98G) | EC50 (BJ-Tert) | EC50 (SaOS2) | EC50 (Rec1) | EC50 (CCD841) | also measured |
| --- | --- | --- | --- | --- | --- | --- | --- | --- | --- | --- | --- | --- | --- | --- | --- | --- | --- | --- | --- | --- | --- |
| 0.766 µM | 14.4 µM | 14.4 µM | 15.8 µM | 20.5 µM | 20.3 µM | 14.7 µM | 10.1 µM | 15.2 µM | 10.7 µM | 19.3 µM | O=C(Nc1ccc(Cl)c(Cl)c1)N1CCC(n2c(=O)[nH]c3c(-c4ccc(CO)nc4)cccc32)CC1 [TH5796, N-(3,4-Dichlorophenyl)-4-[4-[6-(hydroxymethyl)-3-pyridyl]-2-oxo-3H-benzimidazol-1-yl]piperidine-1-carbox amide] | 10.2 µM | 18 µM | 19.4 µM | 21.2 µM | 18.5 µM | 24.4 µM | 16.2 µM | 12.6 µM | 39.7 µM | EC50 (M059J): 20.6 µM; EC50 (UO31): 7.1 µM; EC50 (MV4-11): 6.5 µM; EC50 (U2OS): 16.1 µM; EC50 (MOLT4): 12.6 µM; EC50 (MRC5): 20.8 µM; EC50 (HCT116+Chr3): 16.7 µM; EC50 (HT-29): 22.6 µM; EC50 (VH10): 20.9 µM |
| 0.17 µM | 16.5 µM | 23.9 µM | 34.9 µM | 23.4 µM | 29.8 µM | 28.6 µM | 12.1 µM | 33 µM | 3.1 µM | 28.7 µM | Cc1cc(NC(=O)N2CCC(n3c(=O)[nH]c4c(Br)cccc43)CC2)ccc1I [TH6943, 4-(4-Bromo-2-oxo-3H-benzimidazol-1-yl)-N-(4-iodo-3-methyl-phenyl)piperidine-1-carboxamide] | 18.4 µM | 18.8 µM | 27 µM | 35.1 µM | 16.7 µM | 30.5 µM | 19.8 µM | 14.8 µM | 54.2 µM | EC50 (M059J): 29.4 µM; EC50 (UO31): 3.2 µM; EC50 (MV4-11): 9.6 µM; EC50 (U2OS): 25.1 µM; EC50 (MOLT4): 17.4 µM; EC50 (MRC5): 47.1 µM; EC50 (HCT116+Chr3): 20.3 µM; EC50 (HT-29): 22 µM; EC50 (VH10): 47.5 µM |
